Among the data in patent US20090105278A1, “Selective inhibitors of human corticosteroid syntheses” (Universitat Des Saarlandes, priority 2004, published 2009) are IC50 and inhibition values, retold here.

Counter-ions that a name gives are not always drawn. Like-named read-outs stand apart in the source and are kept apart here.

One test deals with T1, CYP11B2 in NCI-H295R (Homo sapiens, UniProt P19099).
T1 construct: contain 5 steroidogenic CYP450 enzymes, including 17-alpha-hydroxylase, CYP11B1 and CYP11B2; endogenous in cells; host or cells: NCI-H295R
T1 sequence (P19099 25-503): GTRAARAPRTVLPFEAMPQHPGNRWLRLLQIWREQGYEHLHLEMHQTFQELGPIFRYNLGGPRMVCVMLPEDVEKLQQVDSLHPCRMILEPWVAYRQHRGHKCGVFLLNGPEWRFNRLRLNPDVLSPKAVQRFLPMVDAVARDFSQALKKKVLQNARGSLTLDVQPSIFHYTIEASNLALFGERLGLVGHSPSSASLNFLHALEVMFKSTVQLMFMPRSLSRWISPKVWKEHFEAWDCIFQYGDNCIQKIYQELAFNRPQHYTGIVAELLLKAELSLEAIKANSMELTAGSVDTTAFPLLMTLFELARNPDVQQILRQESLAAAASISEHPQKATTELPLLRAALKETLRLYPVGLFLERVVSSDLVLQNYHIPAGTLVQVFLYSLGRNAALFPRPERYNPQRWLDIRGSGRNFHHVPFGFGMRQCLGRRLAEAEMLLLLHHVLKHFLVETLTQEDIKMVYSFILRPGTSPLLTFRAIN
Nature of the test: NCI-H295R cells, CYP11B2 inhibition (substrates corticosterone B or deoxycorticosterone DOC). The test is classed as cell-based. The settings on record: for inhibition at 2.5 µM: NCI-H295R. On the procedure: (§1) For testing inhibitors, a preincubation for one hour was performed first, followed by starting the enzyme reactions by adding substrate (500 nM).
(§2) A) Seeding: The cell lines were grown and passaged until a confluent cell lawn had formed. By tryptic treatment, the cell material of at least two culture dishes was obtained, and the number of cells determined by means of a CASY TT cell counter (150 μl capillary). […] With the cell material of two confluently grown culture dishes, two 24-well plates could be coated. After 24 hours, the cells had grown on, and after another 24 hours' stimulation phase with a solution containing potassium ions (final concentration: 20 mM KCl), could be employed for the test.
In the substrate solutions for the examinations on CYP11B2, the corticosterone substrate solution (final concentration in the test: 500 nM) consisted of 38.4 μl of [1,2-^3H(N)]corticosterone (1 mCi/ml, 76.5 Ci/mmol; NEN-Perkin-Elmer) in ethanol, 39.0 μl of unlabeled corticosterone solution (0.5 mM in ethanol) and 122.6 μl of ethanol. Deoxycorticosterone, which was also employed in a final concentration of 500 nM, was composed of 18 μl of [^14C]-labeled deoxycorticosterone (60.0 mCi/mmol; 0.5 nCi/μl) in ethanol in admixture with 54 μl of unlabeled substance (0.5 mM in ethanol) and 228 μl of ethanol.
(§3) Of this solution, 5 μl each was added to the samples.
(§4) Then, the 24-well plate was stored in a CO2 incubator at 37° C. and […]. The incubation time was 3 hours when deoxycorticosterone was used as the substrate, 24 Hours for corticosterone, and 48 hours for deoxycortisol.
Test stop: After elapse of the incubation times, the plates were briefly swung, and then the content of the wells was removed quantitatively if possible and inactivated by mixing with 1000 μl of dichloromethane in a 2 ml Eppendorf vessel. After 10 minutes of shaking, it was centrifuged for phase separation, and the […], organic phase was transferred into a 1.5 ml Eppendorf vessel.
After evaporating the solvent over night under a hood, the residue was taken up in 10 μl of chloroform and applied to the center of the concentration zone of an HPTLC plate.
For detecting the steroids on the TLC, the radiation-exposed film was scanned in the phosphoimager FLA 3000 after two days.
For the substrate corticosterone, equation 5 was valid: […]

Another test deals with T2, CYP11B1 in NCI-H295R (Homo sapiens, UniProt P15538).
T2 sequence (P15538 25-503): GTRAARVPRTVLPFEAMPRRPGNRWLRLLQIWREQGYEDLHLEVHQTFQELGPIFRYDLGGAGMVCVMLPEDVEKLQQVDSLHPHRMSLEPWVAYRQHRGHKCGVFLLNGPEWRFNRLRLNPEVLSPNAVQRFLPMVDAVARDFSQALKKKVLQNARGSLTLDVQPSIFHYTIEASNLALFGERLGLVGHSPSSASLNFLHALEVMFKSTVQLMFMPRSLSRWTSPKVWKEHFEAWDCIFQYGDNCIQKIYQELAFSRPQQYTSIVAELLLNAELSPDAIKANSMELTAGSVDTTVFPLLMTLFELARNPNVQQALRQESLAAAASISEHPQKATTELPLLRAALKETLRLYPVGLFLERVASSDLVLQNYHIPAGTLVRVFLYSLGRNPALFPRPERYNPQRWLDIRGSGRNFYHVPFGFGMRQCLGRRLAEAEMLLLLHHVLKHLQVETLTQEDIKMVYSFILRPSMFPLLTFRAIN
The experiment in a line: cell-based. The note with it: read-out: NCI-H295R CYP11B1 RSS % inhibition. Here is the method:
as §1, §2, §3, §4
Test stop: After elapse of the incubation times, the plates were briefly swung, and then the content of the wells was removed quantitatively if possible and inactivated by mixing with 1000 μl of dichloromethane in a 2 ml Eppendorf vessel. After 10 minutes of shaking, it was centrifuged for phase separation, and the […], organic phase was transferred into a 1.5 ml Eppendorf vessel. […]

Turning to `Fc1ccc2c(c1)CC/C2=C/c1cccnc1` [Compound 5b, 3-[(Z)-(5-Fluoro-2,3-dihydro-1H-indane-1-ylidene)methyl]pyridine Hydrochloride], the IC50 – broadly, the concentration at which inhibition is half-maximal – on CYP11B2 in NCI-H295R (K+ stimulation 20 mM, substrate [3H]-corticosterone (B) 500 nM, incubation 24 h, read-out: NCI-H295R CYP11B2 B [IC50]) was 17 µM; at CYP11B2 in NCI-H295R (substrate [14C]deoxycorticosterone (DOC) 500 nM, incubation 3 h, read-out: NCI-H295R CYP11B2 DOC [IC50]), 0.156 µM. Further, the values for the inhibition at 2.5 µM at CYP11B2 in NCI-H295R (read-out: NCI-H295R CYP11B2 B % inhibition), at CYP11B2 in NCI-H295R (read-out: NCI-H295R CYP11B2 DOC % inhibition) and at CYP11B1 in NCI-H295R were 6.9%, 89.2% and 73.1%, respectively.
